These are literature values, as cited in patent US12326454B2 (Arium BioLabs LLC, priority 2019, dated 2025).

In the series the target is cMET (Homo sapiens, UniProt P08581). The note with it: stabilizes the A-loop, auto-inhibited conformation.
cMET, sequence (P08581 25-1390): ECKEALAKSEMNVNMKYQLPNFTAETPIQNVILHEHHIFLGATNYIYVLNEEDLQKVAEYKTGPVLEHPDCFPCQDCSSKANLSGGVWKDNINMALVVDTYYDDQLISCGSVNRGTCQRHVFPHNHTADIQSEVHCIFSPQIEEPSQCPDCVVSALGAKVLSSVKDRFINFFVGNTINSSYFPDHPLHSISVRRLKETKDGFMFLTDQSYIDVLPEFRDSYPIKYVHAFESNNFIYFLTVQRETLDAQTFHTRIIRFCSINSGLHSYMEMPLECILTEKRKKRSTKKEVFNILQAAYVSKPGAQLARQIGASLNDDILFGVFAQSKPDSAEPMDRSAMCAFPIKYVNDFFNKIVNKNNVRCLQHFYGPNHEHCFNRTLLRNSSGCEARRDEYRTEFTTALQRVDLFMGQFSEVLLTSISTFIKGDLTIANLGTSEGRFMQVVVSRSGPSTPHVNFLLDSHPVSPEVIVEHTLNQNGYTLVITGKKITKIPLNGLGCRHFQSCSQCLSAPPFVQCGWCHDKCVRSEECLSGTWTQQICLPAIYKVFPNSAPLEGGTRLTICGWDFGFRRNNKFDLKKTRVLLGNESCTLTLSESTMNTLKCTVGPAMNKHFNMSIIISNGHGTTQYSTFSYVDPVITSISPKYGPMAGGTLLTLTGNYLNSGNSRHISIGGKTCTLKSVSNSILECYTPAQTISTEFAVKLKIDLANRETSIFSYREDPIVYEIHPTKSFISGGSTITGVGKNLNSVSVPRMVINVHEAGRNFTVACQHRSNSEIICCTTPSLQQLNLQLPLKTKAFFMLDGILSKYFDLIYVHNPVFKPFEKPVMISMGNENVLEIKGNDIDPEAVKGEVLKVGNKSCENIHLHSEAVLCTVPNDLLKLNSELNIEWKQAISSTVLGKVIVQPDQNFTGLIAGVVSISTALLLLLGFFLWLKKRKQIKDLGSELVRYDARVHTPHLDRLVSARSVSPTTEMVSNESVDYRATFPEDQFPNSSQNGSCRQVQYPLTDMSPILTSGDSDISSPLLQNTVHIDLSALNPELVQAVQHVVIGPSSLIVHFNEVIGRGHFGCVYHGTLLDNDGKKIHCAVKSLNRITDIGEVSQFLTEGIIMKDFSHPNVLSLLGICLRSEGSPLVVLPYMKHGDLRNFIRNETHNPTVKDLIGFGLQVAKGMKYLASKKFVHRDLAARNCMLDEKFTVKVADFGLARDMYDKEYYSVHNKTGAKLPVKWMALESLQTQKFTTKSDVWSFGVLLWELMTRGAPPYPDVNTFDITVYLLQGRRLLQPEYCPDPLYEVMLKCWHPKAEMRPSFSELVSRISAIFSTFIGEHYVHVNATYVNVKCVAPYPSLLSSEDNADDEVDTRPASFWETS

Take `O=C1NC(=O)[C@@H](c2cn3c4c(cccc24)CCC3)[C@@H]1c1c[nH]c2ccccc12` [ARQ197]: the “effect on cMET” value is given as “selectively inhibits cMET”.
